The values that follow come from patent US12415770B2, “Modulators of liver receptor homologue 1 (LRH-1) and uses” (Emory University, priority 2017, dated 2025).

Assay [1] addresses T1, LRH-1 (Homo sapiens, UniProt O00482).
T1 construct: The transfected plasmids included full-length LRH-1 in a pCI vector; expressed in transfected cells; host or cells: HeLa
Nature of the assay: Luciferase reporter assay (SHP-luc) in HeLa cells transfected with full-length LRH-1. In kind it is cell-based. Conditions: for pEC50 / EC50 (μM): HeLa cells, SHP-luc reporter, 24 hours, 0.03-30 μM; for Relative Efficacy: fold increase over baseline (DMSO-treated cells) relative to the fold increase induced by RJW100. The protocol:
EC50 and Relative Activity values were calculated from luciferase reporter assays.
(A reporter such as luciferase makes a cellular process visible.)

The target of assay [2] is T2, LRH-1 LBD (Homo sapiens, UniProt O00482).
T2 construct: LRH-1 LBD (residues 299-541) in the pMSC7 vector was expressed in BL21 (DE3) pLysS E. coli; made in house; host or cells: E. coli BL21 (DE3) pLysS
In words: Thermofluor (DSF) assay, purified LRH-1 LBD-His protein. Conditions: for ΔTm at 50 µM: 50 μM compound, relative to DLPC-bound LRH-1, read-out: ΔTm (mean +/− SEM) (° C.). Type of assay: binding. How it is done: Thermofluor assays—Purified LRH-1 LBD-His protein (0.2 mg/ml) was incubated overnight with 50 μM of each compound at 4° C. The final DMSO concentration in the reactions was 1%. SYPRO orange dye (Invitrogen) was then added at a 1:1000 dilution. Reactions were heated at a rate of 0.5° C. per minute, using a StepOne Plus Real Time PCR System (ThermoFisher). […] Data were analyzed by first subtracting baseline fluorescence (ligands+SYPRO with no protein) and then fitting the curves using the Bolzman equation (GraphPad Prism, v6) to determine the Tm. […]
In general terms: DSF heats the sample and reads unfolding from a dye or from intrinsic fluorescence.

pEC50: −log10 of the molar value. A value given as a limit tells only on which side of the number the result lay.

T1 sequence (O00482 whole entry): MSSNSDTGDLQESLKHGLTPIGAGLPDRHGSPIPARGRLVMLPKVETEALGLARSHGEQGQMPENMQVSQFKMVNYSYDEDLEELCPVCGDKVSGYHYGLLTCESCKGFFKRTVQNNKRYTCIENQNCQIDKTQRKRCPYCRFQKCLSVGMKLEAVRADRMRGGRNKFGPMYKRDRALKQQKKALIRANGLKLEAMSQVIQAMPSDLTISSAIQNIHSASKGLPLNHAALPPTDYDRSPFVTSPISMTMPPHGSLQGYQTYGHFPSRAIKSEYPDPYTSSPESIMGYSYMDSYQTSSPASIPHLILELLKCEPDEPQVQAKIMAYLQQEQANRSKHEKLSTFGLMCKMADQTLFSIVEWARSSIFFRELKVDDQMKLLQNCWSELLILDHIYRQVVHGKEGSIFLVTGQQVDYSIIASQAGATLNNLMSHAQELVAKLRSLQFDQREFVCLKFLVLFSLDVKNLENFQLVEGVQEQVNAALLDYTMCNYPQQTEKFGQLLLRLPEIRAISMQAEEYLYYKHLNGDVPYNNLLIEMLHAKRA
T2 sequence (O00482 299-541): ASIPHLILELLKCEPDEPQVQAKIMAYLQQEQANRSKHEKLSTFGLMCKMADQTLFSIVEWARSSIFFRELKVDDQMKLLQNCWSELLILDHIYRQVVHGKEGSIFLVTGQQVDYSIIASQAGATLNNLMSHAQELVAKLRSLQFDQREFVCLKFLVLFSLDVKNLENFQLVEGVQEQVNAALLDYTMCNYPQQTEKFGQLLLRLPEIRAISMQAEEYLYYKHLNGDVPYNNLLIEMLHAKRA

In the case of `C=C(c1ccccc1)[C@@]12CC[C@@H](NC(C)=O)C1CC(CCCCCC)=C2c1ccccc1` (stereo partly drawn) [Compound 35-exo, N-((endo or exo)-5-hexyl-4-phenyl-3a-(1-phenylvinyl)-1,2,3,3a,6,6a-hexahydropentalen-1-yl) acetamide], in assay [1], the pEC50 was 4.77. Further, in assay [2], the ΔTm at 50 µM is -1.1 °C.

For the compound `C=C(c1ccccc1F)[C@@]12CC[C@@H](O)C1CC(CCCCCC)=C2c1ccccc1` (mixture of isomers) [Compound 20, (Exo)-3a-(1-(2-fluorophenyl)vinyl)-5-hexyl-4-phenyl-1,2,3,3a,6,6a-hexahydropentalen-1-ol], the ΔTm at 50 µM in assay [2] stood at 1.4 °C. For the compound `C=C(c1ccccc1)[C@@]12CC[C@@H](O)[C@@H]1CC(CCCCCC(=O)O)=C2c1ccccc1` (relative stereo) [Compound 7f, 6-(6-exo-hydroxy-3-phenyl-3a-(1-phenylvinyl)-1,3a,4,5,6,6a-hexahydropentalen-2-yl)hexanoic acid], in assay [1], the pEC50 is 5.05 and the “Relative Efficacy” value is on record as 2.22. For the same compound, in assay [2], the ΔTm at 50 µM turned out to be 5.5 °C. Regarding `C=C(c1ccccc1)C12CCC(O)C1CC(CCCCCO)=C2c1ccccc1` (stereo not drawn) [Compound 6e, Exo-5-(5-hydroxypentyl)-4-phenyl-3a-(1-phenylvinyl)-1,2,3,3a,6,6a-hexahydropentalen-1-ol], in assay [1], the “EC50 (μM)” value is given as “cnc” and the “Relative Efficacy” value is on record as 1.57. Besides, the ΔTm at 50 µM in assay [2] is 2.4 °C. The matching figures for `C=C(c1ccccc1OC)[C@@]12CC[C@@H](O)C1CC(CCCCCC)=C2c1ccccc1` (mixture of isomers) [Compound 22, (Exo)-5-hexyl-3a-(1-(2-methoxyphenyl)vinyl)-4-phenyl-1,2,3,3a,6,6a-hexahydropentalen-1-ol]: “cnc”, 0.42 and less than 1 °C. Turning to `C=C(c1ccccc1)[C@@]12CC[C@@H](O)[C@@H]1CC(CCCCCCCCC(=O)O)=C2c1ccccc1` (relative stereo) [Compound 10f, 9-(6-exo-hydroxy-3-phenyl-3a-(1-phenylvinyl)-1,3a,4,5,6,6a-hexahydropentalen-2-yl)nonanoic acid], in assay [1], the negative-log EC50 (pEC50) was 5.74 and the “Relative Efficacy” value is listed as 3.39. Besides, the ΔTm at 50 µM in assay [2] was 3 °C. The matching figures for `C=C(c1ccccc1)[C@@]12CC[C@@H](OS(C)(=O)=O)C1CC(CCCCCC)=C2c1ccccc1` (stereo partly drawn) [Compound 30-exo, (Endo or Exo) 5-hexyl-4-phenyl-3a-(1-phenylvinyl)-1,2,3,3a,6,6a-hexahydropentalen-1-yl methanesulfonate]: 6.00, 0.14 and 1.1 °C. The matching figures for `C=C(c1ccccc1)C12CCC(O)C1CC(CCCCCCCCCCCOP(=O)([O-])OCC[N+](C)(C)C)=C2c1ccccc1` (stereo not drawn) [Compound 12g, 11-(6-exo-hydroxy-3-phenyl-3a-(1-phenylvinyl)-1,3a,4,5,6,6a-hexahydropentalen-2-yl)undecyl (2-(trimethylammonio)ethyl) phosphate]: 5.29, 0.93 and -1.7 °C.

On to `C=C(c1ccccc1)C12CCC(OS(=O)(=O)NC(N)=O)C1CC(CCCCCC)=C2c1ccccc1` (stereo not drawn) [Compound 50-endo, (Endo or Exo)-5-hexyl-4-phenyl-3a-(1-phenylvinyl)-1,2,3,3a,6,6a-hexahydropentalen-1-yl carbamoylsulfamate], for which the “LRH-1 activation” value in assay [1] (WT LRH-1) is listed as “comparable or slightly higher LRH-1 activation”. Also, the “stabilization of LRH-1-ligand complex / Tm shift” value in assay [2] (WT LRH-1) is listed as “greatly stabilized the LRH-1-ligand complex”. With `C=C(c1ccccc1)C12CCC(O)C1CC(CCCCCCCC(=O)N1CCC(COP(=O)([O-])OCC[N+](C)(C)C)C1)=C2c1ccccc1` [Compound 13b, ((3R)-1-(8-(6-(exo)-hydroxy-3-phenyl-3a-(1-phenylvinyl)-1,3a,4,5,6,6a-hexahydropentalen-2-yl)octanoyl)pyrrolidin-3-yl)methyl (2-(trimethylammonio)ethyl)phosphate], in assay [1], the pEC50 is 4.92 and the “Relative Efficacy” value was 0.96. Take `CCCCCCC1=C(c2ccccc2)[C@]2(C(C)c3ccccc3)CC[C@H](O)C2C1` (stereo partly drawn) [Compound 39-endo, (Endo or Exo)-5-hexyl-4-phenyl-3a-(1-phenylethyl)-1,2,3,3a,6,6a-hexahydropentalen-1-ol]: in assay [1], the “Relative Efficacy” value is 0.13. Moreover, the ΔTm at 50 µM in assay [2] turned out to be 0.4 °C.

Regarding `C=C(c1ccccc1)[C@@]12CC[C@@H](N=[N+]=[N-])C1CC(CCCCCC)=C2c1ccccc1` (stereo partly drawn) [Compound 31-exo, (Endo or Exo)-5-hexyl-4-phenyl-3a-(1-phenylvinyl)-1,2,3,3a,6,6a-hexahydropentalen-1-azide], in assay [1], the pEC50 is 5.70 and the “Relative Efficacy” value turned out to be 0.45. In addition, the ΔTm at 50 µM in assay [2] was less than 1 °C. As to `C=C(c1ccccc1)C12CC(O)C(CN)C1CC(CCCCCC)=C2c1ccccc1` (stereo not drawn) [Compound 51, 3-(aminomethyl)-5-hexyl-6-phenyl-6a-(1-phenylvinyl)-1,2,3,3a,4,6a-hexahydropentalen-2-ol], in assay [1], the “EC50 (μM)” value was “cnc” and the “Relative Efficacy” value was found to be 0.65. Turning to `C=C(c1ccccc1)[C@@]12CC[C@@H](NC(N)=O)C1CC(CCCCCC)=C2c1ccccc1` (stereo partly drawn) [Compound 36-exo, 1-((endo or exo)-5-hexyl-4-phenyl-3a-(1-phenylvinyl)-1,2,3,3a, 6,6a-hexahydropentalen-1-yl) urea], the ΔTm at 50 µM in assay [2] is -1.4 °C. `C=C(c1ccccc1)[C@@]12CC[C@@H](O)[C@@H]1CC(CCCCCCCC(=O)OC[C@H](COP(=O)([O-])OCC[N+](C)(C)C)OC(=O)CC)=C2c1ccccc1` [Compound 14d, (2R)-3-((8-(6-(exo)-hydroxy-3-phenyl-3a-(1-phenylvinyl)-1,3a,4,5,6,6a-hexahydropentalen-2-yl)octanoyl)oxy)-2-(propionyloxy) propyl(2-(trimethylammonio)ethyl) phosphate]: in assay [1], the negative logarithm of the EC50 (pEC50) is 4.77 and the “Relative Efficacy” value turned out to be 3.35.

Regarding `C=C(c1ccccc1)[C@@]12CC[C@H](NC(N)=O)C1CC(CCCCCC)=C2c1ccccc1` (stereo partly drawn) [Compound 36-endo, 1-((endo or exo)-5-hexyl-4-phenyl-3a-(1-phenylvinyl)-1,2,3,3a, 6,6a-hexahydropentalen-1-yl) urea], the ΔTm at 50 µM in assay [2] amounted to 1.1 °C.

Take `C=C(c1ccc(Br)cc1)[C@@]12CC[C@@H](O)C1CC(CCCCCC)=C2c1ccccc1` (mixture of isomers) [Compound 23a, (Exo)-3a-(1-(4-bromophenyl)vinyl)-5-hexyl-4-phenyl-1,2,3,3a,6,6a-hexahydropentalen-1-ol]: in assay [1], the “EC50 (μM)” value is given as “cnc” and the “Relative Efficacy” value is 0.06. `C=C(c1ccccc1)[C@@]12CC[C@H](NC(C)=O)C1CC(CCCCCC)=C2c1ccccc1` (stereo partly drawn) [Compound 35-endo, N-((endo or exo)-5-hexyl-4-phenyl-3a-(1-phenylvinyl)-1,2,3,3a,6,6a-hexahydropentalen-1-yl) acetamide]: the ΔTm at 50 µM in assay [2] was 0.4 °C. Turning to `C=C(c1ccccc1)[C@@]12CC[C@@H](OC(=O)NS(=O)(=O)O)C1CC(CCCCCC)=C2c1ccccc1` (stereo partly drawn) [Compound 40-exo, ((((endo or exo)-5-hexyl-4-phenyl-3a-(1-phenylvinyl)-1,2,3,3a, 6,6a-hexahydropentalen-1-yl)oxy)carbonyl)sulfamic acid], in assay [1], the pEC50 is less than 4.52 and the “Relative Efficacy” value is 0. Turning to `C=C(c1ccccc1)[C@@]12CC[C@H](OS(N)(=O)=O)C1CC(CCCCCC)=C2c1ccccc1` (stereo partly drawn) [Compound 28-endo, (Endo or Exo)-5-hexyl-4-phenyl-3a-(1-phenylvinyl)-1,2,3,3a,6,6a-hexahydropentalen-1-yl sulfamate], the ΔTm at 50 µM in assay [2] is 8 °C.

Consider `C=C(c1ccccc1)C12CC(O)C(O)C1CC(CCCCCC)=C2c1ccccc1` (stereo not drawn) [Compound 52, 5-hexyl-4-phenyl-3a-(1-phenylvinyl)-1,2,3,3a,6,6a-hexahydropentalene-1,2-diol], for which, in assay [1], the pEC50 was 8.00 and the “Relative Efficacy” value was −0.25.

For `C=C(c1ccccc1)C12CCC(CN)C1CC(CCCCCC)=C2c1ccccc1` (stereo not drawn) [Compound 48-endo, (endo or exo) (5-hexyl-4-phenyl-3a-(1-phenylvinyl)-1,2,3,3a,6,6a-hexahydropentalen-1-10 yl)methanamine], the ΔTm at 50 µM in assay [2] stood at 0 °C. As for `C=C(c1ccccc1)[C@@]12CC[C@@H](O)C1CC(CCCCCC)=C2c1cc(O)ccc1C` (mixture of isomers) [Compound 17f, (Exo)-5-hexyl-4-(5-hydroxy-2-methylphenyl)-3a-(1-phenylvinyl)-1,2,3,3a,6,6a-hexahydropentalen-1-ol], in assay [2], the ΔTm at 50 µM is -1.9 °C. On the same count and under the same terms, in the case of `C=C(c1ccccc1)[C@@]12CC[C@@H](OS(N)(=O)=O)C1CC(CCCCCC)=C2c1ccccc1` (stereo partly drawn) [Compound 28-exo, (Endo or Exo)-5-hexyl-4-phenyl-3a-(1-phenylvinyl)-1,2,3,3a,6,6a-hexahydropentalen-1-yl sulfamate] it was 5.1 °C; in that of `C=C(c1ccccc1C)[C@@]12CC[C@@H](O)C1CC(CCCCCC)=C2c1ccccc1` (mixture of isomers) [Compound 21, (Exo)-5-hexyl-4-phenyl-3a-(1-(o-tolyl)vinyl)-1,2,3,3a,6,6a-hexahydropentalen-1-ol], 1.3 °C.

What is called pEC50 is −log10 of the EC50, conventionally taken in molar units. Read a high pEC50 as a low EC50.
